Laboratory results as given in patent publication US20230226048A1, “NEW USE OF RABEXIMOD” (Cyxone AB, priority 2020, published 2023).

Tests used:
[1] = tested on: IL-6; assay: Phase IIa clinical trial in rheumatoid arthritis patients, IL-6 assessment (PK/PD population); type: in vivo, human; details: RA patients
Experimental: In a phase IIa clinical trial, a total of 225 patients diagnosed with active rheumatoid arthritis were randomized to receive one of the following treatments: • 6.25 mg of Rabeximod (daily) • 15 mg of Rabeximod (daily) • 37.5 mg of Rabeximod (daily) • Placebo
Study drug was provided in the form of a capsule comprising rabeximod in the form of a (micronized) powder. Over 200 patients completed the study.
The primary aim of the study was to evaluate the safety and efficacy of
Rabeximod treatment in RA patients. The study also involved Pharmacokinetic and Pharmacodynamic assessments in a subgroup (PK/PD Population) of 36 patients. This included assessment of changes in hsCRP, TNF-α, IL-6, COMP and anti-CCP.

[2] = tested on: human peripheral blood mononuclear cells (PBMC); assay: LPS-stimulated cytokine/chemokine release from human PBMC in vitro (multiplex, Luminex); type: cell-based; details: PBMC from 7 donors
Experimental: The effect of Rabeximod on the release of GM-CSF, IL-113, IL-6, IL-8, TNF-α, MCP-1, MIP-1a, MIP-1β and RANTES from human peripheral blood mononuclear cells (PBMC) in vitro was evaluated. Rabeximod was tested at two concentrations (1.25 μg/ml and 12.5 μg/ml) on PBMC's isolated from 7 donors. Human PBMCs were isolated from whole blood using a Ficoll gradient. Cells ([…]) were then plated in a volume of 0.5 ml (0.5 ml of vehicle control (1% methanol in RPMI 1640 media) or rabeximod resuspended in methanol and diluted to a concentration of […] media was added). After incubation (1 h 37° C.) with LPS (0.1 mg/ml), cells were further incubated for 18-20 h before supernatant was removed for analysis of cytokine production using cytokine multiplex assays (Biosource, Nivelles, Belgium), accord-ing to the manufacturer's instructions. Data were collected using a Luminex 100 (Luminex Corporation, Austin, Tex., USA). All samples were analyzed in duplicates and a mean value for each sample was calculated.

[3] = tested on: TLR2 stimulated macrophages; assay: TNF-α production by thioglycolate-recruited peritoneal macrophages after LPS or TLR2 stimuli (ELISA); type: cell-based, mouse; details: 12.5 ug/ml, added 0 h to +3 h after stimulus; stronger effect if administered early
Experimental: The aim was to investigate whether, after stimulation, Rabeximod has the ability to decrease production of pro-inflammatory cytokines by macrophages isolated from the peritoneal cavity after thioglycolate recruitment. B10.Q mice with/without expression of functional TLR4 matched according to sex and age were used as donors of peritoneal macrophages. Mice were injected on day −5 with sterilized 3% Thioglycolate intraperitoneally. On day 0 the peritoneal cavity was washed with ice cold PBS to collect recruited cells. The cells were counted and added to plates at a final concentration of 200 000 cells/well in medium. Rabeximod diluted in a minimal amount DMSO and then DMEM to final concentration (12.5 ug/ml) was added simultaneously (h 0) or at time points+0.5 h, +1 h or +3 hours after LPS or TLR2 stimuli (Lipomannan). Cells were incubated for 24 hours before the whole plate was frozen. TNF-α ELISA was performed after one week using antibodies from e-biosciences and detected by europium. Mice were injected on […] (1 ml) intraperitoneally. […] TNFα production was determined using a ready-SET-go! […]

[4] = tested on: mixed lymphocytes reaction (MLR) of human donors; assay: Mixed lymphocytes reaction (MLR) of human donors, 3[H]-thymidine incorporation; type: cell-based
Experimental: Peripheral blood mononuclear cells (PBMCs) were prepared and modified for use as stimulator cells through γ-irradiation, or for use as responder cells. Rabeximod was then added to a responder and […] cell mix at various concentrations (of 10^−5, 10^−6, 10^−7 and 10^−8 M) before the cells were incubated. In the test, responder cells should proliferate more in the presence than in the absence of stimulator cells.
Normal PBMCs were obtained from healthy volunteers at the blood bank (Shiba medical center, Tel-Hashomer). Blood donations tested negative to HBSAg, HIV, HCV, ALT, HTLV and TPHA. Twelve donors were obtained in 3 sessions following review by the Committee for Ethical Conduct in the Care and Use of Laboratory Animals of the Hebrew University, Jerusalem, the Institutional Animal Care and Use Committee (IACUC) responsible for approving Harlan Biotech (Israel) animal usage application in compliance with its respective registration under National Institues of Health (NIH) accreditation no. OPR-A01-5011. Peripheral blood mononuclear cells (PBMCs) were freshly separated from heparinized full blood by Ficoll-Hypaque (IsoPrep, Robbins Scientific) density gradient centrifugation. After two washes with PBS, cells were diluted in PBMCs medium and counted. Since MLR was conducted in two-ways format, each donor was utilized as stimulator and as responder.
In each session, 0.87*10^6/ml PBMCs cells from each donor were mixed and then γ-irradiated with 4000 rad (about 6.25 minutes). Cells were diluted in PBMCs medium to give the highest concentration). Further dilutions in ×2-fold were done in PBMCs medium. 50*10^6 were taken from each donor to obtain a mixture of stimulators in each experiment.
Cells were resuspended in PBMCs medium at approximately 2*10^6 cells/ml and incubated in flasks for 2 hours at 5% CO2, 37° C. Adherent cells were dis-carded while non-adherent cells in the supernatant were centrifuged at 700 g for 10 minutes. To enrich for T lymphocytes, cells were resuspended in 5% PBMCs medium and loaded on nylon wool columns (Uni-Sorb, Novamed) at 8*10^7 cells/ml, according to manufacturer instructions.
Cells were seeded in 96-well round-bottom plates at the varying ratios of stimulator vs. responder cells.
^3[H]-Thymidine was added to the cell culture at 18 hrs before the end of the cultivation period (6 days). Cells were harvested and transferred to filters (unifilters GF/C) using the Packard filtermate Cell harvester. Following addition of scintillation fluid (MicroScint20™) to the filters, they were counted in Packard microplate scintillation β-counter. Results are expressed as Counting Per Minutes (CPM).

[5] = tested on: wild type and TLR4 deficient mice; assay: Collagen antibody-induced arthritis (CAIA) boosted with TLR stimuli in mice, arthritis scoring; type: in vivo, mouse; details: for arthritis severity: 40 mg/kg subcutaneously every second day, day 5 to 15
Excerpt: QB mice (10-20 weeks) were generated from a (BALB/cxB10.Q) F1 cross. C57BL/10ScNJ mice (Tlr4^lps-del), hereafter called Tlr4^del, were ordered from The Jackson Laboratory (The Jackson Laboratory, Bar Harbor, Me., USA). These mice have deletion of the Tlr4 gene that results in absence of mRNA and protein and is thus defective in response to LPS stimulation. These mice were crossed together with C57BL/10.Q mice from Medical Inflammation Research, Lund university, Lund, Sweden in order to generate mice expressing major histocompatibility complex (MHC) Aq. Mice were kept and bred in a climate-controlled environment with a 12 h light/dark cycle, fed standard rodent chow and water ad libitum in the animal facility of Medical Inflammation Research, Lund University, Lund, Sweden.
Litters were genotyped for MHC using microsatellite marker D17mit230. Genotyping of Tlr4 was performed according to an earlier described method. Briefly, DNA was prepared from biopsies and primers flanking the 70 kb deletion or amplifying the wild-type sequence absent in the TLR4 deleted mice were used.
The mice were matched according to age and sex, and littermates were used in all experiments. All experiments were approved according to Malmö/Lund ethical committee license M107-07.
Male mice, older than 8 weeks, were injected intravenously on day 0 with a cocktail of four monoclonal antibodies (4 mg in a total volume of 310 μl/mouse) containing M2139, CIIC1, CIIC2 and UL1 antibodies binding to J1, C1^I, D3 and U1 epitopes of CII in order to induce CAIA. Day 5 mice were injected with LPS from Escherichia coli (Sigma-Aldrich, St Louis, Mis-souri, USA), deoxycytoylate-phosphate-deoxyguanylate (CpG) DNA (sequence 1668, MWG; Eurofins MWG, Erdersberg, Germany) or lipomannan (LM) from Mycobacterium segma-tis (InvivoGen, San Diego, Calif., USA) intraperitoneally to boost disease (35-50 μg/mouse in 1 ml phosphate-buffered saline (PBS)).
Mice were blindly scored daily to every second day until the end of the experiment. […]

[6] = tested on: T cell proliferation; assay: ConA-stimulated proliferation of lymph node cells from DA rats immunized with rat collagen II, [3H]-thymidine; type: cell-based; details: ConA 1.5 μg/ml, 48 h
Experimental: draining lymph nodes collected day 9 p.i. from DA rats immunized with rat collagen II (RCII) in Freund's Incomplete Adjuvant (FIA) were used to prepare individual single cell suspensions. Lymph nodes were grinded through wire mesh and cells washed 3 times in incomplete DMEM cell culture medium. Cells were counted by trypan blue exclusion and cell suspensions of 2×10^6 cells/ml in complete DMEM prepared. 4×10^5 cells per well were seeded in flat-bottomed 96-well microtiter plates. Triplicates of each individual cell suspension were incubated with 1.5 μg/ml ConA. ConA was diluted in phosphate buffered saline, D-PBS. Spontaneous proliferation was determined by measuring proliferation in cell cultures without addition of ConA. As a positive proliferation control cells were stimulated with ConA together with 10 μl of the rabeximod vehicle, 0.01 M acetic acid. Doses of rabeximod were added in 10 μl vehicle so that the final concentrations in cell cultures ranged from 50-800 ng/ml. Cell cultures were incubated at 37° C.+5% CO2 for 48 h and 1 μCi of [^3H]-Thymidine per well was added to the cultures for the last 12 h. Cellular incorporation of [^3H]-thymidine was measured using a 1450 Microbeta Wallac Trilux Liquid Scintillation Luminescence Counter after harvesting the cells onto nitrocellulose filters.
Individual Inhibition Indices (1.1.) were calculated by dividing the average counts per minute (cpm) value of each triplicate stimulated with ConA and rabeximod with the average cpm value of the triplicate stimulated with ConA only. The inhibition of proliferation induced by rabeximod addition was expressed as % of the positive control (ConA only), i.e. by multiplying the inhibition indices with 100.

[7] = cited from earlier work
[8] = tested on: murine arthritis model; details: murine arthritis model in mice; cited from earlier work
[9] = tested on: collagen-induced arthritis model; details: dark agouti rats, daily subcutaneous administration from the day of immunization; cited from earlier work

SMILES: Cc1cc2nc3c4cc(Cl)ccc4n(CC(=O)NCCN(C)C)c3nc2cc1C [Rabeximod, 9-Chloro-2,3-dimethyl-6-(N,N-dimethylaminoethylamino-2-oxoethyl)-6H-indolo-[2,3-b]quinoxaline]
- change in IL-6 median value from baseline ([1]; 6.25 mg daily, Week 12): −185.0 IU/L
- change in IL-6 median value from baseline ([1]; 6.25 mg daily, Week 16): −804 IU/L
- change in IL-6 median value from baseline ([1]; 15 mg daily, Week 12): −1679.0 IU/L
- change in IL-6 median value from baseline ([1]; 15 mg daily, Week 16): −1879 IU/L
- change in IL-6 median value from baseline ([1]; 37.5 mg daily, Week 12): 136.0 IU/L
- change in IL-6 median value from baseline ([1]; 37.5 mg daily, Week 16): −1124 IU/L
- LPS-stimulated production of IL-6 ([2]; 1.25 μg/ml): significantly reduced
- LPS-stimulated production of MIP-1α ([2]; 1.25 μg/ml): significantly reduced
- LPS-stimulated production of MIP-1β ([2]; 1.25 μg/ml): significantly reduced
- LPS-stimulated production of TNFα ([2]; 1.25 μg/ml): significantly reduced
- LPS-stimulated production of RANTES ([2]; 12.5 μg/ml): all but RANTES were reduced
- LPS-stimulated production of pro-inflammatory cytokines and chemokines other than RANTES ([2]; 12.5 μg/ml): reduced
- TNF-α production from TLR2 stimulated macrophages [3]: decreases
- inhibition of MLR activity ([4]; 10^−5 M, all responder:stimulator ratios): strong inhibitory effect
- inhibition of MLR activity ([4]; 10^−8 M): the inhibition decreased to a lesser extent
- inhibition of MLR activity ([4]; lower doses (10^−7, 10^−8 M)): less effective
- inhibition of MLR activity ([4]; two highest concentrations (10^−5, 10^−6 M), all tested ratios): highly inhibitory
- arthritis severity ([5]; TLR4 deficient mice): reduces
- activation of macrophages in animal models of arthritis ([5]; downstream mechanism, likely TLR2 signalling pathway): inhibits
- arthritis severity ([5]; wild type mice): reduces
- inhibition of T cell proliferation ([6]; 300 ng/ml): Approximately 50%
- inhibition of T cell proliferation ([6]; 500 ng/ml): approximately 80%
- inhibition at 0.3 µg/mL ([6]; Rattus norvegicus, T-cell, 300 ng/ml): ≥ 50%
- inhibition at 0.5 µg/mL ([6]; Rattus norvegicus, T-cell, 500 ng/ml): ≥ 80%
- fraction in plasma bound to protein [7]: approximately 99%
- arthritogenic scoring [8]: statistically significant durable reductions
- paw swelling [8]: statistically significant durable reductions
- paw thickness [8]: statistically significant durable reductions
- arthritis severity [9]: suppressed
- onset of clinical arthritis [9]: significantly delayed
